# Reference: patent US20250032524A1, “BROAD SPECTRUM AMINOGLYCOSIDES AND USES THEREOF” (REVAGENIX, INC., priority 2022, published 2025)
# Where two headings read alike, the source gives them in different places.
# Key:
# Assay in all cases: MIC broth microdilution (CLSI)
# Type in all cases: cell-based
# K. aerogenes = conditions: Klebsiella aerogenes; strain AEAE1042, MDR Clinical isolate (CDC CRE panel), CDC AR Bank 0161
# Procedure: (§1) Minimum inhibitory concentrations for representative example compounds herein were determined by a broth microdilution method in accordance with the Clinical and Laboratory Standards Institute (CLSI) guidelines. In brief, organism suspensions were adjusted to a 0.5 McFarland standard to yield a final inoculum between 3×10^5 and 7×10^5 colony-forming units (CFU)/mL. The inoculum was prepared by suspension of a colony from an agar plate that was prepared the previous day. Compound dilutions and inoculum were prepared in sterile, cation adjusted Mueller-Hinton Broth (Beckton Dickinson).
# (§2) Bacteria were suspended in sterile saline and added to each assay plate to obtain a final concentration of 5×10^5 CFU/mL. An inoculum volume of 100 μL was added to wells containing 100 μL of broth with 2-fold serial dilutions of the test compound. All inoculated microdilution trays were incubated in ambient air at 35° C. for 18-24 hours. Following incubation, the lowest concentration of the compound that prevented visible growth (OD 600 nm<0.05) is recorded was the MIC. […] Performance of the assay was monitored by the use of laboratory quality-control strains and a standard compound with a defined MIC spectrum (neomycin), in accordance with CLSI guidelines.
# S. aureus = conditions: for MIC: Staphylococcus aureus
# Procedure: as §1, §2
# E. coli = conditions: Escherichia coli
# Procedure: as §1, §2
# K. pneumoniae = test system: K. pneumoniae
# Procedure: as §1, §2
# S. enterica = conditions: Salmonella enterica, read-out: Activity (MIC)
# Procedure: as §1, §2
# P. mirabilis = conditions: Proteus mirabilis; strain APMI1048, MDR Clinical isolate (CDC CRE panel), CDC AR Bank 0159
# Procedure: as §1, §2
# E. cloacae = conditions: Enterobacter cloacae; strain AECL1089, MDR Clinical isolate (CDC CRE panel), CDC AR Bank 0154
# Procedure: as §1, §2
# C. freundii = conditions: Citrobacter freundii, read-out: Activity (MIC)
# Procedure: as §1, §2
# P. aeruginosa = conditions: Pseudomonas aeruginosa
# Procedure: as §1, §2
# A. baumannii = conditions: Acinetobacter baumannii
# Procedure: as §1, §2
structure (smiles),measurement,setting,value
"C[C@H](N)[C@@H]1CC[C@@H](N)[C@@H](O[C@@H]2[C@@H](N)[C@H](O)[C@@H](NC(=O)[C@@H](O)CCN)[C@H](O)[C@H]2O[C@@H]2O[C@H](CO)[C@@H](O[C@H]3O[C@@H](CN)[C@@H](O)[C@H](O)[C@H]3N)[C@H]2O)O1 [Compound 6, (S)-4-Amino-N-((1R,2S,3S,4R,5R,6S)-3-Amino-4-(((2R,3R,6S)-3-Amino-6-((S)-1-Aminoethyl)Tetrahydro-2H-Pyran-2-Yl)Oxy)-5-(((2S,3R,4S,5R)-4-(((2R,3R,4R,5S,6S)-3-Amino-6-(Aminomethyl)-4,5-Dihydroxytetrahydro-2H-Pyran-2-Yl)Oxy)-3-Hydroxy-5-(Hydroxymethyl)Tetrahydrofuran-2-Yl)Oxy)-2,6-Dihydroxycyclohexyl)-2-Hydroxybutanamide]",MIC,K. aerogenes,< 16 µg/mL
same,MIC,"S. aureus; ATCC29213, strain NSAU001, wild-type, QC, ATCC 29213",< 16 µg/mL
same,MIC,"S. aureus; strain NSAU1004, MDR Clinical isolate",< 16 µg/mL
same,Activity (MIC),"S. aureus; strain NSAU1015, MDR Clinical isolate",+ (MIC threshold for positive activity (+) is ≤16 μg/mL)
same,Activity (MIC),"S. aureus; strain NSAU1023, MDR Clinical isolate",+ (MIC threshold for positive activity (+) is ≤16 μg/mL)
same,Activity (MIC),"S. aureus; strain NSAU1063, MDR Clinical isolate",+ (MIC threshold for positive activity (+) is ≤16 μg/mL)
same,MIC,"E. coli; read-out: Activity (MIC), strain AECO1225, MDR Clinical isolate (CDC CRE panel), CDC AR Bank 0118",< 16 µg/mL
same,MIC,"E. coli; read-out: Activity (MIC), strain AECO1226, MDR Clinical isolate (CDC CRE panel), CDC AR Bank 0119",< 16 µg/mL
same,MIC,"E. coli; read-out: Activity (MIC), strain AECO1227, MDR Clinical isolate (CDC CRE panel), CDC AR Bank 0128",< 16 µg/mL
same,MIC,"E. coli; read-out: Activity (MIC), strain NECO0003, ΔtolC",< 16 µg/mL
same,MIC,"E. coli; read-out: Activity (MIC), strain NECO0245, ArmA",< 16 µg/mL
same,MIC,"E. coli; strain NECO0001, WT QC, read-out: Activity (MIC)",< 16 µg/mL
same,MIC,"E. coli; strain NECO0002, WT, read-out: Activity (MIC)",< 16 µg/mL
same,MIC,"E. coli; strain NECO0243, empty vector, read-out: Activity (MIC)",< 16 µg/mL
same,MIC,"E. coli; strain NECO0244, AAC(6')-Ib, read-out: Activity (MIC)",< 16 µg/mL
same,MIC,"E. coli; strain NECO0289, APH(3')-Ia, read-out: Activity (MIC)",< 16 µg/mL
same,MIC,"E. coli; strain NECO0302, AAC(3)-IIa, read-out: Activity (MIC)",< 16 µg/mL
same,MIC,"E. coli; strain NECO0350, AAC(2')-I, read-out: Activity (MIC)",< 16 µg/mL
same,MIC,"E. coli; strain NECO0359, ANT(4')-Ia, read-out: Activity (MIC)",< 16 µg/mL
same,MIC,"K. pneumoniae; Klebsiella pneumoniae, strain AKPN1246, MDR Clinical isolate (CDC CRE panel), CDC AR Bank 0139",< 16 µg/mL
same,Activity (MIC),"K. pneumoniae; strain AKPN1250, MDR Clinical isolate (CDC CRE panel), CDC AR Bank 0143",+ (MIC threshold for positive activity (+) is ≤16 μg/mL)
same,Activity (MIC),"K. pneumoniae; strain AKPN1253, MDR Clinical isolate (CDC CRE panel), CDC AR Bank 0148",+ (MIC threshold for positive activity (+) is ≤16 μg/mL)
same,Activity (MIC),"K. pneumoniae; strain AKPN1255, MDR Clinical isolate (CDC CRE panel), CDC AR Bank 0153",+ (MIC threshold for positive activity (+) is ≤16 μg/mL)
same,MIC,S. enterica,< 16 µg/mL
same,MIC,P. mirabilis,< 16 µg/mL
same,MIC,E. cloacae,< 16 µg/mL
same,MIC,C. freundii,< 16 µg/mL
same,MIC,"P. aeruginosa; read-out: Activity (MIC), strain NPAE0006, Efflux KO, Aph(3')-IIb",< 16 µg/mL
same,MIC,"P. aeruginosa; read-out: Activity (MIC), strain NPAE0010, MexXY over-expressed, Aph(3')-IIb",< 16 µg/mL
same,MIC,"P. aeruginosa; read-out: Activity (MIC), strain NPAE1288, MDR Clinical isolate",< 16 µg/mL
same,MIC,"P. aeruginosa; read-out: Activity (MIC), strain NPAE1293, MDR Clinical isolate",< 16 µg/mL
same,MIC,"P. aeruginosa; read-out: Activity (MIC), strain NPAE1299, MDR Clinical isolate",< 16 µg/mL
same,MIC,"P. aeruginosa; read-out: Activity (MIC), strain NPAE1302, MDR Clinical isolate",< 16 µg/mL
same,MIC,"P. aeruginosa; read-out: Activity (MIC), strain NPAE1303, MDR Clinical isolate",< 16 µg/mL
same,MIC,"P. aeruginosa; read-out: Activity (MIC), strain NPAE1308, MDR Clinical isolate",> 16 µg/mL
same,MIC,"P. aeruginosa; read-out: Activity (MIC), strain NPAE1310, MDR Clinical isolate",< 16 µg/mL
same,MIC,"P. aeruginosa; read-out: Activity (MIC), strain NPAE1313, MDR Clinical isolate",< 16 µg/mL
same,MIC,"P. aeruginosa; read-out: Activity (MIC), strain NPAE1316, MDR Clinical isolate",< 16 µg/mL
same,MIC,"P. aeruginosa; read-out: Activity (MIC), strain NPAE1323, MDR Clinical isolate",< 16 µg/mL
same,MIC,"P. aeruginosa; strain NPAE0001, WT Aph(3')-IIb, QC, read-out: Activity (MIC)",< 16 µg/mL
same,MIC,"P. aeruginosa; strain NPAE0002, WT Aph(3')-IIb, read-out: Activity (MIC)",< 16 µg/mL
same,MIC,"P. aeruginosa; strain NPAE0359, aph(3')-IIb KO (tetR), read-out: Activity (MIC)",< 16 µg/mL
same,MIC,"A. baumannii; read-out: Activity (MIC), strain NABA0007, ΔadeJK efflux",< 16 µg/mL
same,MIC,"A. baumannii; read-out: Activity (MIC), strain NABA1427, MDR Clinical isolate",< 16 µg/mL
same,MIC,"A. baumannii; read-out: Activity (MIC), strain NABA1433, MDR Clinical isolate",< 16 µg/mL
same,MIC,"A. baumannii; read-out: Activity (MIC), strain NABA1434, MDR Clinical isolate",< 16 µg/mL
same,MIC,"A. baumannii; read-out: Activity (MIC), strain NABA1436, MDR Clinical isolate",< 16 µg/mL
same,MIC,"A. baumannii; read-out: Activity (MIC), strain NABA1437, MDR Clinical isolate",< 16 µg/mL
same,MIC,"A. baumannii; read-out: Activity (MIC), strain NABA1438, MDR Clinical isolate",< 16 µg/mL
same,MIC,"A. baumannii; read-out: Activity (MIC), strain NABA1439, MDR Clinical isolate",< 16 µg/mL
same,MIC,"A. baumannii; read-out: Activity (MIC), strain NABA1448, MDR Clinical isolate",< 16 µg/mL
same,MIC,"A. baumannii; read-out: Activity (MIC), strain NABA1449, MDR Clinical isolate",< 16 µg/mL
same,MIC,"A. baumannii; read-out: Activity (MIC), strain NABA1450, MDR Clinical isolate",< 16 µg/mL
same,MIC,"A. baumannii; strain NABA0006, WT parent, read-out: Activity (MIC)",< 16 µg/mL
same,MIC,"A. baumannii; strain NABA0020, AME negative strain, read-out: Activity (MIC)",< 16 µg/mL
